Test results as given in patent US11234939B2, “Dosage forms comprising a plasma kallikrein inhibitor” (KALVISTA PHARMACEUTICALS LIMITED, priority 2017, dated 2022).
pIC50: −log10 of the molar value. Values belong to the compound of their own block, whether it stands above or below them.

Columns and labels:
[1] = tested on: rats; conditions: systemic administration; cited from earlier work
[2] = Slurry Studies; type: physicochemical; conditions: 90/10 IPA/water, ambient temperature, 72 hrs
Description: Form 1 (20 mg) was suspended in 90/10 IPA/water […] and shaken at ambient temperature for 72 hrs. The supernatant was evaporated rather than filtered due to the small volume and the resulting solid was examined by XRPD (FIG. 5).

[3] = Stability study of Form 1 on storage; type: physicochemical; conditions: for Change in XRPD diffractogram on storage: after 1 month and 3 months
Description: A sample of Form 1 was packed in double polyethylene bags and sealed in a HDPE bottle and stored at conditions of 25° C./60% RH. The sample was reanalysed after 1 month and 3 months by XRPD (using Method B). No change in the XRPD diffractogram was observed when the sample was stored at 25° C./60% RH after either 1 month or 3 months.
Further tests on the sample of Form 1 stored at 25° C./60% RH were carried out as described in Table 1:
A second sample of Form 1 was packed in double polyethylene bags and sealed in a HDPE bottle and stored under accelerated stability conditions of 40° C./75% RH. The sample was reanalysed after 1 month and 3 months by XRPD (using Method B). No change in the XRPD diffractogram was observed when the sample was stored at 40° C./75% RH after either 1 month or 3 months.
Further tests on the sample of Form 1 stored at 40° C./75% RH were carried out as described in Table 2: […]

[4] = Gravimetric Vapour Sorption (GVS) of Form 1; type: physicochemical
Description: Gravimetric Vapour Sorption (GVS) data were collected using the following method: Approximately 10 mg of sample was placed into a wire-mesh vapour sorption balance pan and loaded into an ‘IgaSorp’ vapour sorption balance (Hiden Analytical Instruments). The sample was then dried by maintaining a 0% humidity environment until no further weight change was recorded. Subsequently, the sample was then subjected to a ramping profile from 0-90% RH at 10% RH increments, maintaining the sample at each step until equilibration had been attained (99% step completion). Upon reaching equilibration, the % RH within the apparatus was ramped to the next step and the equilibration procedure repeated. After completion of the sorption cycle, the sample was then dried using the same procedure. The weight change during the sorption/desorption cycles were then monitored, allowing for the hygroscopic nature of the sample to be determined.

[5] = Visual Aqueous Solubility; type: physicochemical; conditions: thermodynamic from solid; 10 mg in 20 mL water
Description: Form 1 (10 mg) was weighed into a glass vial and water was added in […] up to 3 mL then 1 mL portions thereafter. Solubility was assessed visually following a brief period of equilibration.

[6] = Gravimetric Vapour Sorption (GVS) of Form 5; type: physicochemical; conditions: 0% to 95% RH
Description: Form 5 is hygroscopic with a mass uptake of 23%, as determined by Gravimetric Vapour Sorption (GVS) studies. The GVS studies were performed using a Surface Measurement Systems Ltd. DVS-1 No Video, equipment #2126. The sample was loaded into a balance pan, typically 20-30 mg, and equilibrated at 0% RH. After the material was dried, the RH was increased with 10% per step for 1 hour per increment, ending at 95% RH. After completion of the sorption cycle, the sample was dried using the same method. The software used for data collection was DVSWin v3.01 No Video. Data analysis was performed using DVS Standard Analysis Suite v6.3.0 (Standard).

[7] = Polymorph stability of Form 5; type: physicochemical; conditions: also on XRPD measurement
[8] = tested on: LPS-induced disseminated intravascular coagulation; conditions: cited from earlier work
[9] = Pharmacokinetic study, single oral dose in rats; type: in vivo; conditions: male, Sprague-Dawley, plasma; rat, po 10.1 mg/kg, vehicle TPGS solution (20% aq. w/v)
Description: A pharmacokinetic study of the compound of Formula A was performed to assess the pharmacokinetics following a single oral dose in male Sprague-Dawley rats. Two rats were given a single po dose of 5 mL/kg of a nominal 2 mg/mL (10 mg/kg) composition of test compound in vehicle. Following dosing, blood samples were collected over a period of […]. Sample times were 5, 15 and 30 minutes then 1, 2, 4, 6, 8 and 12 hrs. Following collection, blood samples were centrifuged and the plasma fraction analysed for concentration of test compound by LCMS.

[10] = biological target: T1, Human FXIa (Homo sapiens, UniProt P03951); experiment: Determination of the % Inhibition for FXIa; type: biochemical; conditions: 40 μM test compound, 25° C.
T1 construct: purchased Enzyme Research Laboratories
T1 sequence (P03951 388-625 limits assumed): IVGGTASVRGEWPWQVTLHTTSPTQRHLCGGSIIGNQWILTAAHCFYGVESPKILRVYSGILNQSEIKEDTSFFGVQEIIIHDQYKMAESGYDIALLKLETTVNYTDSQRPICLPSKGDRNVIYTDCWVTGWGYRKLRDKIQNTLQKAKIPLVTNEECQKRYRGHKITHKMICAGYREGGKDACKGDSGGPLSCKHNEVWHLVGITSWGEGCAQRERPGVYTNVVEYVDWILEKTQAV
T1 sequence (P03951 19-387 partner limits assumed): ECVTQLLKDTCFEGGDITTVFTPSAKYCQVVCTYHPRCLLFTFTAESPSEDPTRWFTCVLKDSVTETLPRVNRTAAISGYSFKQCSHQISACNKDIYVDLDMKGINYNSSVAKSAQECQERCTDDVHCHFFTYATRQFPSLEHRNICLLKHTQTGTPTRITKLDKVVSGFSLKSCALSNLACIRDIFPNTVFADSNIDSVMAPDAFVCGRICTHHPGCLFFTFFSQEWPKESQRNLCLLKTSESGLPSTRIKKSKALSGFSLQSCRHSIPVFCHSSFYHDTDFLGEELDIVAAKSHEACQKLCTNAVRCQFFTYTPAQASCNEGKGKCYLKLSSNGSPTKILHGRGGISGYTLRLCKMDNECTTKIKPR
Description: (§1) FXIa inhibitory activity in vitro was determined using standard published methods (see e.g. Johansen et al., Int. J. Tiss. Reac. 1986, 8, 185; Shori et al., Biochem. Pharmacol., 1992, 43, 1209; Sturzebecher et al., Biol. Chem. Hoppe-Seyler, 1992, 373, 1025). Human FXIa (Enzyme Research Laboratories) was incubated at 25° C. with the fluorogenic substrate Z-Gly-Pro-Arg-AFC and 40 μM of the test compound. Residual enzyme activity (initial rate of reaction) was determined by measuring the change in optical absorbance at 410 nm.

[11] = biological target: T2, Human KLK1 (Homo sapiens, UniProt P06870); experiment: Determination of the IC50 for KLK1; type: biochemical; conditions: 25° C., substrate H-DVal-Leu-Arg-AFC
T2 construct: purchased Callbiochem
T2 sequence (P06870 25-262): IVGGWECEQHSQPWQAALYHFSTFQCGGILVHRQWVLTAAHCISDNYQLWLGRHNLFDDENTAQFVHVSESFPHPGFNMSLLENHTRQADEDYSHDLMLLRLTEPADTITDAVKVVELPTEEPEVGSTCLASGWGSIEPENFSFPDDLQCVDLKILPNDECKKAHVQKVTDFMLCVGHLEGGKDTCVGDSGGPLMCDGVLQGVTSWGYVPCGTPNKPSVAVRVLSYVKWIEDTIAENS
Description: as §1, with “KLK1” for “FXIa”, “Stürzebecher” for “Sturzebecher”, “KLK1 (Callbiochem)” for “FXIa (Enzyme Research Laboratories)”, “H-DVal-Leu-Arg-AFC” for “Z-Gly-Pro-Arg-AFC”, “various concentrations” for “40 μM”, “nm and the IC50 value for the test compound was determined.” for “nm.”

[12] = tested on: intrinsic pathway of coagulation; conditions: in vitro; cited from earlier work
[13] = tested on: blood; conditions: blood contacted with the inhibitor; cited from earlier work

Compound: N=C(N)c1ccc(CNC(=O)c2cnn(Cc3ccccc3)c2)cc1 [ASP-440]
Hematoma expansion [1]: reduced

Compound: Cl.NCC1CCC(C(=O)N[C@@H](Cc2ccccc2)C(=O)Nc2ccc(CC(=O)O)cc2)CC1 (some centres unmarked) [PKSI-527]
Decrease in platelet count and fibrinogen level and increase in FDP level [8]: significantly suppressed

Compound: Ecallantide
Contact activated induced coagulation [12]: delay | Activated clotting time (ACT) [13]: increase

More lines, now with the values ahead:

XRPD after slurry compared with FIG. 1a [2]: tendency to form hydrate(s) | Appearance ([3]; 25° C./60% RH, 1 month): Off-white | Assay by HPLC (on an anhydrous and solvent free basis) ([3]; 25° C./60% RH, 1 month): 99.5 % w/w | DSC Tonset ([3]; 25° C./60% RH, 1 month): 151.1 °C | DSC Tpeak ([3]; 25° C./60% RH, 1 month): 152.4 °C | HPLC assay (on an as is basis) ([3]; 25° C./60% RH, 1 month): 99.4 % w/w | Purity by HPLC ([3]; 25° C./60% RH, 1 month): 99.62 area % | Solid form of compound A by XRPD ([3]; 25° C./60% RH, 1 month): Conforms | Total impurities ([3]; 25° C./60% RH, 1 month): 0.38 area % | Water by Karl Fischer analysis ([3]; 25° C./60% RH, 1 month): <0.1 % w/w | Appearance ([3]; 25° C./60% RH, 3 months): Off-white | Assay by HPLC (on an anhydrous and solvent free basis) ([3]; 25° C./60% RH, 3 months): 99.6 % w/w | DSC Tonset ([3]; 25° C./60% RH, 3 months): 150.8 °C | DSC Tpeak ([3]; 25° C./60% RH, 3 months): 152.2 °C | HPLC assay (on an as is basis) ([3]; 25° C./60% RH, 3 months): 99.5 % w/w | Purity by HPLC ([3]; 25° C./60% RH, 3 months): 99.70 area % | Solid form of compound A by XRPD ([3]; 25° C./60% RH, 3 months): Conforms | Total impurities ([3]; 25° C./60% RH, 3 months): 0.30 area % | Water by Karl Fischer analysis ([3]; 25° C./60% RH, 3 months): <0.1 % w/w | Appearance ([3]; 25° C./60% RH, Initial): Off-white | Assay by HPLC (on an anhydrous and solvent free basis) ([3]; 25° C./60% RH, Initial): 101.0 % w/w | DSC Tonset ([3]; 25° C./60% RH, Initial): 151.3 °C | DSC Tpeak ([3]; 25° C./60% RH, Initial): 152.9 °C | HPLC assay (on an as is basis) ([3]; 25° C./60% RH, Initial): 100.9 % w/w | Purity by HPLC ([3]; 25° C./60% RH, Initial): 99.70 area % | Solid form of compound A by XRPD ([3]; 25° C./60% RH, Initial): Conforms | Total impurities ([3]; 25° C./60% RH, Initial): 0.30 area % | Water by Karl Fischer analysis ([3]; 25° C./60% RH, Initial): <0.1 % w/w | Change in XRPD diffractogram on storage ([3]; 25° C./60% RH): no change | Appearance ([3]; 40° C./75% RH, 1 month): Off-white | Assay by HPLC (on an anhydrous and solvent free basis) ([3]; 40° C./75% RH, 1 month): 99.5 % w/w | DSC Tonset ([3]; 40° C./75% RH, 1 month): 151.1 °C | DSC Tpeak ([3]; 40° C./75% RH, 1 month): 152.3 °C | HPLC assay (on an as is basis) ([3]; 40° C./75% RH, 1 month): 99.4 % w/w | Purity by HPLC ([3]; 40° C./75% RH, 1 month): 99.57 area % | Solid form of compound A by XRPD ([3]; 40° C./75% RH, 1 month): Conforms to | Total impurities ([3]; 40° C./75% RH, 1 month): 0.43 area % | Water by Karl Fischer analysis ([3]; 40° C./75% RH, 1 month): <0.1 % w/w | Appearance ([3]; 40° C./75% RH, 3 months): Off-white | Assay by HPLC (on an anhydrous and solvent free basis) ([3]; 40° C./75% RH, 3 months): 100.0 % w/w | DSC Tonset ([3]; 40° C./75% RH, 3 months): 150.6 °C | DSC Tpeak ([3]; 40° C./75% RH, 3 months): 152.5 °C | HPLC assay (on an as is basis) ([3]; 40° C./75% RH, 3 months): 99.9 % w/w | Purity by HPLC ([3]; 40° C./75% RH, 3 months): 99.71 area % | Solid form of compound A by XRPD ([3]; 40° C./75% RH, 3 months): Conforms to | Total impurities ([3]; 40° C./75% RH, 3 months): 0.29 area % | Water by Karl Fischer analysis ([3]; 40° C./75% RH, 3 months): 0.1 % w/w | Appearance ([3]; 40° C./75% RH, Initial): Off-white | Assay by HPLC (on an anhydrous and solvent free basis) ([3]; 40° C./75% RH, Initial): 101.0 % w/w | DSC Tonset ([3]; 40° C./75% RH, Initial): 151.3 °C | DSC Tpeak ([3]; 40° C./75% RH, Initial): 152.9 °C | HPLC assay (on an as is basis) ([3]; 40° C./75% RH, Initial): 100.9 % w/w | Purity by HPLC ([3]; 40° C./75% RH, Initial): 99.70 area % | Solid form of compound A by XRPD ([3]; 40° C./75% RH, Initial): Conforms to | Total impurities ([3]; 40° C./75% RH, Initial): 0.30 area % | Water by Karl Fischer analysis ([3]; 40° C./75% RH, Initial): <0.1 % w/w | Change in XRPD diffractogram on storage ([3]; 40° C./75% RH): no change | %-Wt(dry basis) ([4]; adsorption, 0.0335 %-RH): 0.04722% | %-Wt(dry basis) ([4]; adsorption, 9.9791 %-RH): 0.23% | %-Wt(dry basis) ([4]; adsorption, 20.0169 %-RH): 0.3541% | %-Wt(dry basis) ([4]; adsorption, 30.0091 %-RH): 0.7126% | %-Wt(dry basis) ([4]; adsorption, 39.9998 %-RH): 0.825% | %-Wt(dry basis) ([4]; adsorption, 49.991 %-RH): 1.207% | %-Wt(dry basis) ([4]; adsorption, 59.9808 %-RH): 1.699% | %-Wt(dry basis) ([4]; adsorption, 70.0195 %-RH): 1.912% | %-Wt(dry basis) ([4]; adsorption, 80.0136 %-RH): 2.186% | %-Wt(dry basis) ([4]; adsorption, 90.0039 %-RH): 3.226% | %-Wt(dry basis) ([4]; desorption, 0.0335 %-RH): 0.000368% | %-Wt(dry basis) ([4]; desorption, 4.9801 %-RH): 0.1269% | %-Wt(dry basis) ([4]; desorption, 15.0203 %-RH): 0.5017% | %-Wt(dry basis) ([4]; desorption, 25.0135 %-RH): 0.7008% | %-Wt(dry basis) ([4]; desorption, 35.0052 %-RH): 1.017% | %-Wt(dry basis) ([4]; desorption, 44.9954 %-RH): 1.525% | %-Wt(dry basis) ([4]; desorption, 54.9837 %-RH): 1.685% | %-Wt(dry basis) ([4]; desorption, 64.9759 %-RH): 1.865% | %-Wt(dry basis) ([4]; desorption, 75.0151 %-RH): 2.116% | %-Wt(dry basis) ([4]; desorption, 85.0063 %-RH): 2.547% | Hygroscopicity (GVS) ([4]; up to 70% relative humidity): absence of significant hygroscopicity | solubility [5]: < 500 µg/mL
Compound: COCc1nn(Cc2ccc(Cn3ccccc3=O)cc2)cc1C(=O)NCc1nccc(OC)c1F [Form 1, N-[(3-Fluoro-4-methoxypyridin-2-yl)methyl]-3-(methoxymethyl)-1-({4-[(2-oxopyridin-1-yl)methyl]phenyl}methyl)pyrazole-4-carboxamide]

GVS (mass uptake %) [6]: 23% | Polymorph conversion over time [7]: converts into polymorph Form 3
Compound: COCc1nn(Cc2ccc(Cn3ccccc3=O)cc2)cc1C(=O)NCc1nccc(OC)c1F [Form 5, N-[(3-Fluoro-4-methoxypyridin-2-yl)methyl]-3-(methoxymethyl)-1-({4-[(2-oxopyridin-1-yl)methyl]phenyl}methyl)pyrazole-4-carboxamide]

Cmax [9]: 1940 ng/mL | Tmax [9]: 1.17 h | inhibition at 40 µM [10]: 0% | pIC50 [11]: < 4.40
Compound: COCc1nn(Cc2ccc(Cn3ccccc3=O)cc2)cc1C(=O)NCc1nccc(OC)c1F [compound of Formula A, N-[(3-fluoro-4-methoxypyridin-2-yl)methyl]-3-(methoxymethyl)-1-({4-[(2-oxopyridin-1-yl)methyl]phenyl}methyl)pyrazole-4-carboxamide]
